# Article PMC6263664 (CPT: Pharmacometrics & Systems Pharmacology, 2018)
# Several values for one entry are separate records, joined by “and”; a condition that tells them apart may be missing. Identical values can stand only once. Like-named read-outs stand apart in the source and are kept apart here. Marks after values point to notes of the source that are not given here.
# Assays:
# [1] = Updated stage 1 / stage 2 population pharmacokinetic analysis; format: in vivo, human; conditions: for ACS subjects (θ13) effect on Vc/F, Estimate ± SE / Evening dosing (AM/PM = 2) (θ10) effect on ka, Estimate ± SE / NVAF subjects (θ12) effect on Vc/F, Estimate ± SE: fractional change; for Vd/F: Vc/F (θ3) apparent volume of distribution of the central compartment, Estimate ± SE; for D_WTB (θ11) baseline body weight effect on Vc/F, Estimate ± SE: power coefficient
# [2] = cited from earlier work
# P‐glycoprotein (P‐gp) = conditions: cited from earlier work
# [3] = vs normal renal function, phase I; cited from earlier work
# [4] = test system: cytochrome P450 3A4 (CYP3A4); conditions: cited from earlier work
# [5] = test system: breast cancer resistance protein; conditions: cited from earlier work
# [6] = format: in vivo, human
# [7] = cited from earlier work; remark: listed apart in the source
# [8] = relative to the typical 70‐kg NVAF subject
# [9] = fractional change, stage 2 final ad hoc model
# [10] = power coefficient, stage 2 final ad hoc model
# [11] = relative to non‐Asian typical patients with NVAF
smiles,measurement,setting,value
COc1ccc(-n2nc(C(N)=O)c3c2C(=O)N(c2ccc(N4CCCCC4=O)cc2)CC3)cc1 [apixaban],"predicted increase in AUCss, moderate renal impairment","[1]; NVAF, cCrCL 40 mL/minute, compared with normal renal function",28%
same,"predicted increase in AUCss, mild renal impairment","[1]; NVAF, cCrCL = 65 mL/minute, compared with normal renal function",9%
same,increase in exposure with strong/moderate inhibitors of both CYP3A4 and P‐gp,[1]; PPK estimate,~ 17%
same,"CLR/F (θ2) apparent renal clearance, Estimate ± SE","[1]; cCrCL reference 80 mL/minute, stage 2 final model",1.57 ± 0.117 L/h
same,"reduced CL/F, ACS",[1]; compared with healthy subjects,21.5%
same,"reduced CL/F, Asian race",[1]; compared with non‐Asian subjects,11.9%
same,"ACS subjects (θ13) effect on Vc/F, Estimate ± SE",[1]; stage 2 final model,−0.180 ± 0.0446
same,"Evening dosing (AM/PM = 2) (θ10) effect on ka, Estimate ± SE",[1]; stage 2 final model,−0.433 ± 0.0236
same,"NVAF subjects (θ12) effect on Vc/F, Estimate ± SE",[1]; stage 2 final model,−0.0405 ± 0.0491
same,"ACS subjects (θ13) effect on Vc/F, Estimate ± SE",[1]; updated stage 1 final model,−0.177 ± 0.0449
same,"Evening dosing (AM/PM = 2) (θ10) effect on ka, Estimate ± SE",[1]; updated stage 1 final model,−0.434 ± 0.0234
same,"NVAF subjects (θ12) effect on Vc/F, Estimate ± SE",[1]; updated stage 1 final model,−0.0217 ± 0.0501
same,effect of strong CYP3A4/P‐gp inducers on CL/F,"[1]; full stage 2 model, not included in final model",very small and poorly estimated
same,CL renal,"[1]; human, plasma, oral",26.2 mL/min
same,Vd/F,"[1]; human, plasma, oral, stage 2 final model",30 ± 0.971 L
same,Vd/F,"[1]; human, plasma, oral, updated stage 1 final model",29.8 ± 0.981 L
same,impact of Asian race on exposure,[1]; in vivo,< 15%
same,"D_WTB (θ11) baseline body weight effect on Vc/F, Estimate ± SE",[1]; stage 2 final model,0.790 ± 0.0645
same,"D_WTB (θ11) baseline body weight effect on Vc/F, Estimate ± SE",[1]; updated stage 1 final model,0.806 ± 0.0649
same,decrease in ka with administration in the evening,[1]; relative to administration in the morning or afternoon,43%
same,increase in Vc/F for a 90‐kg subject,[1]; [8],22%
same,reduction in Vc/F for a 50‐kg subject,[1]; [8],23.3%
same,"Logit for reduction in Frel at 50 mg (I50) (θ9), Estimate ± SE",[1]; stage 2 final model,−0.322 ± 0.0512
same,"Shape parameter for Frel (γ) (θ8), Estimate ± SE",[1]; stage 2 final model,0.857 ± 0.0684
same,"Vp/F (θ5) apparent volume of distribution of the peripheral compartment, Estimate ± SE",[1]; stage 2 final model,27.0 ± 2.03 L
same,"ka (θ1) absorption rate constant, Estimate ± SE",[1]; stage 2 final model,0.473 ± 0.0208 h⁻¹
same,"Logit for reduction in Frel at 50 mg (I50) (θ9), Estimate ± SE",[1]; updated stage 1 final model,−0.321 ± 0.0512
same,"Shape parameter for Frel (γ) (θ8), Estimate ± SE",[1]; updated stage 1 final model,0.853 ± 0.0693
same,"Vp/F (θ5) apparent volume of distribution of the peripheral compartment, Estimate ± SE",[1]; updated stage 1 final model,26.7 ± 1.89 L
same,"ka (θ1) absorption rate constant, Estimate ± SE",[1]; updated stage 1 final model,0.471 ± 0.0204 h⁻¹
same,change in exposure due to individual covariate (demographic) effects,"[1]; vs the reference NVAF subject, except severe renal impairment",< 25% and ≤ 25%
same,oral bioavailability,[2],~ 50%
same,steady‐state volume of distribution,[2],~ 21 liters
same,time dependency of pharmacokinetics,[2],no time dependency
same,total clearance,[2],3.3 L/h
same,Renal clearance as share of total systemic clearance,"[2]; following intravenous administration, healthy subjects",~ 27%
same,half‐life,[2]; following oral administration,~ 12 hours
same,dose dependence of exposure,[2]; therapeutic dose range (2.5–10 mg),dose‐proportional increase in exposure
same,substrate status,P‐glycoprotein (P‐gp),substrate
same,"higher estimated AUCINF, mild renal impairment",[3],~ 16%
same,"higher estimated AUCINF, moderate renal impairment",[3],~29%
same,"higher estimated AUCINF, severe renal impairment",[3],~44%
same,pathway of plasma elimination,[4],metabolism primarily by cytochrome P450 3A4 (CYP3A4)
same,substrate status,[5],substrate
same,"ACS subjects (θ13) effect on Vc/F, Estimate ± SE",[6]; [9],−0.184 ± 0.0463
same,"Evening dosing (AM/PM = 2) (θ10) effect on ka, Estimate ± SE",[6]; [9],−0.436 ± 0.0237
same,"Female (θ15) effect on CLNR/F, Estimate ± SE",[6]; [9],−0.227 ± 0.0269
same,"NVAF subjects (θ12) effect on Vc/F, Estimate ± SE",[6]; [9],−0.0530 ± 0.0508
same,CL renal,"[6]; human, plasma, oral",26.7 mL/min
same,Vd/F,"[6]; human, plasma, oral",30 ± 1.04 L
same,"Age (θ14) effect on CLNR/F, Estimate ± SE",[6]; [10],−0.414 ± 0.0727
same,"D_WTB (θ11) baseline body weight effect on Vc/F, Estimate ± SE",[6]; [10],0.792 ± 0.0648
same,CL/F higher in Korean subjects,[6]; relative to non‐Asian subjects,3.3%
same,CL/F lower in Japanese subjects,[6]; relative to non‐Asian subjects,15.1%
same,CL/F lower in other Asian subjects,[6]; relative to non‐Asian subjects,4.3%
same,"change in daily AUCss, Japanese",[6]; [11],17.7%
same,"change in daily AUCss, Korean",[6]; [11],−3.2%
same,"change in daily AUCss, other Asian races",[6]; [11],4.5%
same,"change in population mean total CL/F, Japanese",[6]; [11],−15.1%
same,"change in population mean total CL/F, Korean",[6]; [11],3.3%
same,"change in population mean total CL/F, other Asian races",[6]; [11],−4.3%
same,CL/F apparent total clearance,"[6]; simple sum of CLR/F and CLNR/F, stage 2 final ad hoc model",3.62 ^a L/hour
same,"Logit for reduction in Frel at 50 mg (I50) (θ9), Estimate ± SE",[6]; stage 2 final ad hoc model,−0.327 ± 0.0519
same,"Shape parameter for Frel (γ) (θ8), Estimate ± SE",[6]; stage 2 final ad hoc model,0.875 ± 0.0779
same,"Vp/F (θ5) apparent volume of distribution of the peripheral compartment, Estimate ± SE",[6]; stage 2 final ad hoc model,27.3 ± 2.78 L
same,"ka (θ1) absorption rate constant, Estimate ± SE",[6]; stage 2 final ad hoc model,0.471 ± 0.0218 h⁻¹
same,increase in AUC when co‐administered with diltiazem,"[7]; diltiazem, a moderate CYP3A4/P‐gp inhibitor",40%
same,increase in AUC when co‐administered with ketoconazole,"[7]; ketoconazole, a strong CYP3A4/P‐gp inhibitor",99%
